Laboratory results from patent US8222278B2, “Treatment of attention-deficit/hyperactivity disorder” (Abbott Laboratories, priority 2008, dated 2012).

Test system: adults with ADHD
Experiment: Study A: treatment-emergent adverse events (safety dataset)
Experimental: During each visit, blood pressure, heart rate, weight, medication accountability and tolerability, and adverse effects were assessed.
The safety dataset consisted of all subjects who took at least one dose of study drug. The reasons for discontinuation and the treatment-emergent adverse events were summarized by the treatment under which the discontinuation or event was reported.
Treatment-emergent adverse events were those that began or worsened following the first dose of study drug in Period 1. Adverse event monitoring was conducted at each study visit and until 30 days following discontinuation of study drug. Other routine safety assessments included vital signs, electrocardiograms, physical examinations, brief neurological examinations and laboratory tests.

## Clc1cc(N2C[C@@H]3CN[C@@H]3C2)cnc1Cl [ABT-894, 3-(5,6-Dichloro-pyridin-3-yl)-1S,5S-3,6-diazabicyclo[3.2.0]heptane]
ABT-894 4 mg BID, N = 46
  Headache, number of subjects: 4 subjects
  Lethargy, % of subjects: (0) %
  Lethargy, number of subjects: 0 subjects
  Muscle Strain, % of subjects: (0) %
  Muscle Strain, number of subjects: 0 subjects
  Nasal congestion, % of subjects: (6.5) %
  Nasal congestion, number of subjects: 3 subjects
  Nausea, % of subjects: (8.7) %
  Nausea, number of subjects: 4 subjects
  Parathesia, % of subjects: (0) %
  Parathesia, number of subjects: 0 subjects
  Sleep disturbances, % of subjects: (4.3) %
  Sleep disturbances, number of subjects: 2 subjects
  Somnolence, % of subjects: (4.3) %
  Somnolence, number of subjects: 2 subjects
  Upper RTI, % of subjects: (0) %
  Upper RTI, number of subjects: 0 subjects
  Vomiting, % of subjects: (2.2) %
  Vomiting, number of subjects: 1 subjects
ABT-894 4 mg QD, N = 40
  Any Adverse Event, % of subjects: (65.0) %
  Any Adverse Event, number of subjects: 26 subjects
  Decreased appetite, % of subjects: (5.0) %
  Decreased appetite, number of subjects: 2 subjects
  Diarrhea, % of subjects: (7.5) %
  Diarrhea, number of subjects: 3 subjects
  Dizziness, % of subjects: (10.0) %
  Dizziness, number of subjects: 4 subjects
  Dry mouth, % of subjects: (0) %
  Dry mouth, number of subjects: 0 subjects
  Fatigue, % of subjects: (5.0) %
  Fatigue, number of subjects: 2 subjects
  Feeling hot and cold, % of subjects: (0) %
  Feeling hot and cold, number of subjects: 0 subjects
  Feeling jittery, % of subjects: (0) %
  Feeling jittery, number of subjects: 0 subjects
  Headache, % of subjects: (12.5) %
  Headache, number of subjects: 5 subjects
  Lethargy, % of subjects: (2.5) %
  Lethargy, number of subjects: 1 subjects
  Muscle Strain, % of subjects: (0) %
  Muscle Strain, number of subjects: 0 subjects
  Nasal congestion, % of subjects: (0) %
  Nasal congestion, number of subjects: 0 subjects
  Nausea, % of subjects: (22.5) %
  Nausea, number of subjects: 9 subjects
  Parathesia, % of subjects: (0) %
  Parathesia, number of subjects: 0 subjects
  Sleep disturbances, % of subjects: (7.5) %
  Sleep disturbances, number of subjects: 3 subjects
  Somnolence, % of subjects: (0) %
  Somnolence, number of subjects: 0 subjects
  Upper RTI, % of subjects: (7.5) %
  Upper RTI, number of subjects: 3 subjects
  Vomiting, % of subjects: (10.0) %
  Vomiting, number of subjects: 4 subjects
Total ABT-894, N = 174
  Any Adverse Event, number of subjects: 109 subjects
  Decreased appetite, % of subjects: (1.1) %
  Decreased appetite, number of subjects: 2 subjects
  Diarrhea, % of subjects: (3.4) %
  Diarrhea, number of subjects: 6 subjects
  Dizziness, % of subjects: (6.3) %
  Dizziness, number of subjects: 11 subjects
  Dry mouth, % of subjects: (1.7) %
  Dry mouth, number of subjects: 3 subjects
  Fatigue, % of subjects: (5.2) %
  Fatigue, number of subjects: 9 subjects
  Feeling hot and cold, % of subjects: (0) %
  Feeling hot and cold, number of subjects: 0 subjects
  Feeling jittery, % of subjects: (0) %
  Feeling jittery, number of subjects: 0 subjects
  Headache, % of subjects: (10.3) %
  Headache, number of subjects: 18 subjects
  Lethargy, % of subjects: (0.6) %
  Lethargy, number of subjects: 1 subjects
  Muscle Strain, % of subjects: (1.7) %
  Muscle Strain, number of subjects: 3 subjects
  Nasal congestion, % of subjects: (1.7) %
  Nasal congestion, number of subjects: 3 subjects
  Nausea, number of subjects: 21 subjects
  Parathesia, % of subjects: (0) %
  Parathesia, number of subjects: 0 subjects
  Sleep disturbances, % of subjects: (7.5) %
  Sleep disturbances, number of subjects: 13 subjects
  Somnolence, % of subjects: (4.6) %
  Somnolence, number of subjects: 8 subjects
  Upper RTI, % of subjects: (4.0) %
  Upper RTI, number of subjects: 7 subjects
  Vomiting, % of subjects: (3.4) %
  Vomiting, number of subjects: 6 subjects
Adults with ADHD, all doses
  Safety and tolerability: generally was safe and well tolerated
